{"source": "patent US20040235795A1", "about": "“Utilization of phosphatidylserine in the treatment of attention deficit syndrome (adhs)” (priority 2001, published 2004)", "key": {"[1]": {"test_system": "attention deficit syndrome (ADHS) probands", "test": "Open study of phosphatidylserine supplementation in ADHS probands (examples 1 to 4)", "type": "in vivo, human", "experimental": "Probands in an open study (examples 1 to 4) were selected with the aid of the Wender Utah Rating Scale (WURS) on the basis of their performance at school as well as clinical and physiological tests. They were assessed after 4, 6 and 8 weeks with the short-term supplementation and after 2, 4 and 6 months with the longer supplementation. The probands were examined for measurable differences with regard to concentration, attention, impulsivity, aggression potential and hyperactivity. Questionnaires were used to involve probands, parents and teachers in the evaluation."}, "ADHS patients": {"test_system": "ADHS patients", "settings": "cited from earlier work"}, "[2]": {"settings": "Example 3: 100 mg per day, 6 months, child, after the third month"}, "[3]": {"settings": "high dosages 200 to 500 mg daily over 4 months"}}, "note": "“Also recorded” adds a separate entry of the source."}
{"substance": "phosphatidylserine", "values": [{"measurement": "habituation effects", "setting": "[1]; ADHS patients / probands with ADHS", "result": "no habituation effects occurred"}, {"measurement": "general well-being (reported by proband)", "setting": "[1]; Example 2: 200 mg three times daily, 7 weeks, child", "result": "improvement"}, {"measurement": "hyperactivity", "setting": "[1]; Example 2: 200 mg three times daily, 7 weeks, child, end of supplementation", "result": "marked decline"}, {"measurement": "attentiveness, concentration and memory performance as well as achievement at school", "setting": "[1]; Example 3: 100 mg per day, 6 months, child", "result": "improved considerably"}, {"measurement": "general well-being", "setting": "[1]; [2]", "result": "improvement"}, {"measurement": "mood", "setting": "[1]; [2]", "result": "uplift"}, {"measurement": "tolerance", "setting": "[1]; even in high doses and over a longer supplementation period", "result": "no limitation whatsoever on its wellknown good tolerance; also recorded: well tolerated"}, {"measurement": "improvement of the ADHS symptoms", "setting": "ADHS patients; 100 mg per day over a period of 2 months", "result": "did not result in a clear improvement"}, {"measurement": "side effects with drugs administered at the same time", "setting": "ADHS patients; 100 to 500 mg daily", "result": "no side effects occurred"}, {"measurement": "probands with positive effect", "setting": "ADHS patients; 200 to 300 mg daily (severe symptoms up to 500 mg daily) over 4 months, probands aged 3 to 19 years", "result": "25 of 27"}, {"measurement": "improvement in single proband one", "setting": "ADHS patients; [3]", "result": "not possible to make a clear statement about an improvement"}, {"measurement": "improvement in single proband two", "setting": "ADHS patients; [3]", "result": "only a slight improvement"}]}
